Data on 20 molecules can be found in patent US20170216252A1, “ANTI-BACTERIAL PYRUVATE KINASE MODULATOR COMPOUNDS, COMPOSITIONS, USES AND METHODS” (SIMON FRASER UNIVERSITY, priority 2014, published 2017).

In data set [1] the test system is S. aureus ATCC 29123. The data set can be described thus: Neutropenic mouse Staphylococcus aureus thigh infection model. The data set is classed as in vivo. As to conditions: vancomycin control, 10 mg/kg IP at 2 and 8 h, 24 h endpoint. How it is done: The antimicrobial activity of compound 178 against S. aureus ATCC 29123 was tested in vivo using the neutropenic mouse Staphylococcus aureus thigh infection model. […] Animals were individually monitored for adverse reactions for 30 min post-infection. […] Vancomycin was administered as a solution in PBS. The test compounds were administered as outlined in Table 12 at 2 and 8 hours post-infection and animals were individually monitored for adverse reactions for 30 min after each injection. All animals were then monitored hourly from 20 hours post infection to the endpoint (t=24 hr post infection). At the indicated timepoint, animals were sacrificed and the injected thigh collected. Quantitative enumeration of bacterial load was determined by plating serial dilutions from homogenized thigh muscles. Homogenized muscle was in a total of 2 mL volume, from which a 1 in 10 dilution was prepared (100 μL into 900 μL saline). From this a series of dilutions were prepared and plated on Mueller Hinton agar plates. […] At the end of this time colony counts were determined and the final CFU per mL calculated.

Data set [2] deals with VRE#2 (2010A). Briefly: Broth microdilution MIC. The data set is classed as cell-based, vancomycin-resistant Enterococcus. As to conditions: Enterococcus, read-out: MIC (μg/mL) F. How it is done: (§1) The antimicrobial activities of PK inhibitor candidates were determined using the 96-well microtiter standard 2-fold serial broth microdilution method as described by CLSI (formerly NCCLS) with the various gram-positive and gram-negative bacteria species mentioned above. Bacteria from a single colony were grown, overnight in either BHI Broth (VRE), mueller hinton broth (S. aureus 29213; MRSA USA400) or L-broth (E. coli, P. aeruginosa, S. typhimuriu, K. Pneumonia and A. baumannii). […] Culture plates were incubated for 18-24 h at 37° C., and optical density at 600 nm (OD600) was measured using a Benchmark Plus™ microplate spectrophotometer (Bio-Rad™). The absorbance control values for the series containing CAMHB and inhibitor were subtracted as background from the corresponding infected wells. The MIC was defined as the lowest concentration of test compound leading to complete inhibition of cell growth in relationship to compound-free control wells as determined by optical density. […] All assays were run in triplicate (Tables 1-6) or duplicate. Experiments were replicated at least twice to verify reproducibility using the above conditions.
(§2) The antimicrobial activity of selected compounds against the gram negative bacteria Klebsiella pneumoniae, Acinetobacter baumannii, E. coli, Pseudomonas aeruginosa and Salmonella typhimurium, as well as additional gram positive bacteria, including drug-resistant strains, was tested according to the procedures provided under “General Methodologies” above.
In general terms: Broth dilution looks for growth in wells or tubes with falling amounts of substance.

In data set [3] the test system is A. baumannii (ATCC 19606). Briefly: Broth microdilution MIC. The data set is classed as cell-based. As to conditions: Acinetobacter baumannii, ATCC19606, read-out: MIC (μg/mL) B. How it is done:
as §1, §2

The subject of data set [4] is K. pneumoniae (C238). Briefly: Broth microdilution MIC. The data set is classed as cell-based. As to conditions: Klebsiella pneumoniae, read-out: MIC (μg/mL) A. How it is done: as §1, §2
The subject of data set [5] is MRSA MW2 (USA400). Briefly: Broth microdilution MIC. As to conditions: Staphylococcus aureus, read-out: MIC (μg/mL) G. The data set is classed as cell-based. As for the experimental part: as §1, §2
Data set [6] deals with S. aureus ATCC 29213. The data set can be described thus: In vitro susceptibility, broth microdilution MIC. The data set is classed as cell-based, Staphylococcus aureus. The gist of the method: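 The MIC against S. aureus 29213 was determined by CLSI 2-fold serial broth microdilution in Mueller Hinton broth. Plates were incubated for 18–24 h at 37 °C and read at OD600 with background subtracted. The MIC was the lowest concentration giving complete growth inhibition versus compound-free wells.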

The target in data set [7] is T1, MRSA PK (Staphylococcus aureus, UniProt Q6GG09).
T1 construct: His tag (pET-28a(+) vector) (N); made in house; host or cells: E. coli BL-21 (DE3)
T1 sequence (Q6GG09 whole entry): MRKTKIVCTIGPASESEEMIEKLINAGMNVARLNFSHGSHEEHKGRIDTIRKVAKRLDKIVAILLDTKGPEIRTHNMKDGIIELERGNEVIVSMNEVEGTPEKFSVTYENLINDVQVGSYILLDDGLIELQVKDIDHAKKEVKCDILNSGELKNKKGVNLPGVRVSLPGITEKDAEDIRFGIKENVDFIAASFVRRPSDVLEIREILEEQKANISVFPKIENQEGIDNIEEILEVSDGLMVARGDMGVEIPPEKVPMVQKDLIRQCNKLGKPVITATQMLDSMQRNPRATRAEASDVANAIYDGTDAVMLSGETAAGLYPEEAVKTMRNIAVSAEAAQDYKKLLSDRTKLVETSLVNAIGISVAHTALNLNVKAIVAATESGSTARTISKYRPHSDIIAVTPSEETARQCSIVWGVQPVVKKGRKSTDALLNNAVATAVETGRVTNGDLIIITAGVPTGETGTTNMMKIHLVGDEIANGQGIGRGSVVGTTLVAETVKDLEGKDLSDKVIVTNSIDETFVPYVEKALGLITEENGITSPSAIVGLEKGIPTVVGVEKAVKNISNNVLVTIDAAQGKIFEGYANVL
The data set can be described thus: MRSA PK activity, continuous LDH-coupled assay. The data set is classed as biochemical, S. aureus (MRSA strain Sanger 252). As to conditions: for fold more potent: compared to 10a. The method, boiled down: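 Activity was tracked as the 340 nm absorbance fall from NADH oxidation via coupled LDH, at 30 °C for ≤5 min. Reactions began on adding 15 nM recombinant His-tagged S. aureus PK, with inhibitor DMSO kept ≤1%. Four-parameter dose–response fitting gave IC50.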

[8] abbreviates: Tables 1-6, 2 mM ADP, 10 mM PEP, 15 nM PK, read-out: IC50.
The mark [9] stands for this setting: Staphylococcus aureus, ATCC29213, Tables 1-6 and text, minimum concentration to give >98% inhibition of growth, read-out: MIC.
[10] abbreviates: read-out: % inhibition at the highest concentration tested (IC50).

By IC50 is commonly meant the midpoint of a concentration-inhibition curve. The melting point is the temperature of the solid-liquid transition.

≈ marks a conversion by molar mass, not a printed value. Where two headings read alike, the source gives them in different places. Some results are limits rather than exact numbers.

As for `CN[C@H](CC(C)C)C(=O)N[C@H]1C(=O)N[C@@H](CC(N)=O)C(=O)N[C@H]2C(=O)N[C@H]3C(=O)N[C@H](C(=O)N[C@H](C(=O)O)c4cc(O)cc(O)c4-c4cc3ccc4O)[C@H](O)c3ccc(c(Cl)c3)Oc3cc2cc(c3O[C@@H]2O[C@H](CO)[C@@H](O)[C@H](O)[C@H]2O[C@H]2C[C@](C)(N)[C@H](O)[C@H](C)O2)Oc2ccc(cc2Cl)[C@H]1O` [Vancomycin, reference compound], the “median CFU/thigh” value in data set [1] is 1.91×10^3 CFU/thigh. For the same molecule, the MIC in data set [2] (VRE) is 64 µg/mL (≈ 44.2 µM); in data set [3], 64 µg/mL (≈ 44.2 µM); in data set [4], 4 µg/mL (≈ 2.76 µM); in data set [5] it was 1 µg/mL (≈ 0.69 µM); in data set [6] (Staphylococcus aureus, ATCC29213), 1 µg/mL (≈ 0.69 µM); in data set [6] (Staphylococcus aureus, ATCC29213, read-out: MIC (μg/mL) H), 1 µg/mL (≈ 0.69 µM).

As to `Brc1ccc2cc(-c3ccc(-c4cc5ccccc5[nH]4)cc3)[nH]c2c1` [Compound 33c, 2-(4-(1H-indol-2-yl)phenyl)-6-bromo-1H-indole], the melting point was > 300 °C. Moreover, in data set [7] (setting [8]), the IC50 is 5.6 nM. Further, in data set [6] (setting [9]), the MIC is > 64 µg/mL.

On to `O=C(Cn1c(-c2cc3ccc(Br)cc3[nH]2)cc2cc(Br)ccc21)N1CCOCC1` [Compound 15, 2-(5,6′-dibromo-1H,1′H-[2,2′-biindol]-1-yl)-1-morpholinoethanone], for which the melting point was in the range of 320 to 322 °C. For the same molecule, in data set [7] (setting [8]), the IC50 stood at 6 nM. The MIC in data set [6] (setting [9]) is > 64 µg/mL.

The molecule `Brc1ccc2[nH]c(-c3nc4ccc(Br)cc4s3)cc2c1` [Compound 22g, 6-Bromo-2-(5-bromo-1H-indol-2-yl)benzo[d]thaizole] displayed a melting point of 246 to 248 °C. In addition, the IC50 in data set [7] (setting [8]) is 4.1 nM. The fold more potent result in data set [7] is given as “about 5 fold”. The MIC in data set [6] (setting [9]) is > 64 µg/mL.

`COc1ccc2[nH]c(-c3cc4ccc(Br)cc4[nH]3)cc2c1` [Compound 10f, 6′-Bromo-5-methoxy-1H,1′H-2,2′-biindole] showed a melting point of 240 to 241 °C. In data set [7] (setting [8]), the IC50 is 2.5 nM. Besides, the MIC in data set [6] (setting [9]) is > 64 µg/mL.

For `Brc1ccc2[nH]c(-c3cc4ccccc4s3)cc2c1` [Compound 22f, 2-(Benzo[b]thiophen-2-yl)-5-bromo-1H-indole], the melting point lay within 269 to 271 °C. Besides, the inhibition at 1 µM in data set [7] (setting [10]) is 42%. The MIC in data set [6] (setting [9]) was > 64 µg/mL.

`Brc1ccc2cc(C#Cc3cc4ccccc4[nH]3)[nH]c2c1` [Compound 25a, 2-((1H-indol-2-yl)ethynyl)-6-bromo-1H-indole] registered a melting point of 240 to 242 °C. In data set [7] (setting [8]), the IC50 is 7.1 nM. The same molecule had a fold more potent in data set [7] of 3 fold. Besides, the MIC in data set [6] (setting [9]) was > 64 µg/mL.

`Brc1ccc2cc(-c3cc4ccccc4[nH]3)[nH]c2c1` [Compound 10a, 6-Bromo-1H,1′H-2,2′-biindole]: the melting point fell in the range of 199 to 201 °C. For the same molecule, the IC50 in data set [7] (setting [8]) came to 21.4 nM. In addition, the MIC in data set [6] (setting [9]) amounted to 2 µg/mL (≈ 6.43 µM). For the same molecule, the “fold more potent in the MIC assay” value in data set [6] (compared to 10b) is recorded as “about 8 fold”.

For `Brc1ccc2[nH]c(CCc3cc4ccc(Br)cc4[nH]3)cc2c1` [Compound 28b, 6-bromo-2-(2-(5-bromo-1H-indol-2-yl)ethyl)-1H-indole], the melting point fell in the range of 208 to 210 °C. Further, the IC50 in data set [7] (setting [8]) worked out at 6.3 nM. Also, the MIC in data set [6] (setting [9]) is > 64 µg/mL.

The molecule `O=C(O)Cn1c(-c2cc3ccc(Br)cc3[nH]2)cc2cc(Br)ccc21` [Compound 14, 2-(5,6′-Dibromo-1H,1′H-[2,2′-biindol]-1-yl)acetic acid] gave a melting point of 321 to 323 °C. Further, the IC50 in data set [7] (setting [8]) came to 11.1 nM. In data set [6] (setting [9]), the MIC is > 64 µg/mL.

In turn, `Clc1ccc2[nH]c(-c3cc4ccc(Br)cc4[nH]3)cc2c1` [Compound 10d, 6′-Bromo-5-chloro-1H,1′H-2,2′-biindole] registered a melting point of 257 to 259 °C. Also, the IC50 in data set [7] (setting [8]) was 2 nM. Besides, the MIC in data set [6] (setting [9]) amounted to 0.3 µg/mL (≈ 0.868 µM).

`O=C(c1c(/C=C/c2ccc(Cl)cc2)[nH]c2cc(Br)ccc12)C(F)(F)F` [Compound 168, (E)-1-(6-Bromo-2-(4-chlorostyryl)-1H-indol-3-yl)-2,2,2-trifluoroethanone]: the MIC amounted to 1 µg/mL (≈ 2.33 µM) in data set [2] (VRE#2 (2010A)); 0.5 µg/mL (≈ 1.17 µM) in data set [5] (MRSA MW2 (USA400)); 2 µg/mL (≈ 4.67 µM) in data set [6] (Staphylococcus aureus, ATCC29213, S. aureus (ATCC29213), Table 9, read-out: MIC (μg/mL) H); 1 µg/mL (≈ 2.33 µM) in data set [6] (Staphylococcus aureus, ATCC29213, Table 8, tested at least in duplicate, differing values all given, read-out: MIC); 2 µg/mL (≈ 4.67 µM) in data set [6] (Table 8, tested at least in duplicate, differing values all given). Moreover, in data set [7], the IC50 was 100 to 1000 nM.

`COCn1c(-c2cc3ccc(Br)cc3[nH]2)cc2cc(Br)ccc21` [Compound 12c, 5,6′-Dibromo-1-(methoxymethyl)-1H,1′H-2,2′-biindole] showed a melting point of 199 to 201 °C. Further, the IC50 in data set [7] (setting [8]) was found to be 1.9 nM. Also, in data set [6] (setting [9]), the MIC was > 64 µg/mL.

Molecule `Brc1ccc2c(c1)cc(-c1cc3ccc(Br)cc3[nH]1)n2CCN1CCCCC1` [Compound 72, 5,6′-dibromo-1-(2-(piperidin-1-yl)ethyl)-1H,1′H-2,2′-biindole] gave a melting point of 102 to 104 °C. The same molecule had an IC50 in data set [7] of 3.7 nM. Besides, the MIC in data set [6] (setting [9]) is > 64 µg/mL.

In the case of `Fc1ccc2[nH]c(-c3cc4ccc(Br)cc4[nH]3)cc2c1` [Compound 10e, 6′-Bromo-5-fluoro-1H,1′H-2,2′-biindole], the melting point is 246 to 248 °C. Besides, the IC50 in data set [7] (setting [8]) was determined as 2.8 nM. The MIC in data set [6] (setting [9]) was 0.3 µg/mL (≈ 0.911 µM).

Consider `Brc1ccc2cc(-c3cc4ccccc4s3)[nH]c2c1` [Compound 22c, 2-(Benzo[b]thiophen-2-yl)-6-bromo-1H-indole], for which the melting point fell in the range of 250 to 252 °C. For the same molecule, the IC50 in data set [7] (setting [8]) is 14 nM. In addition, the MIC in data set [6] (setting [9]) was > 64 µg/mL.

Take `Brc1ccc2[nH]c(-c3nc4ccccc4s3)cc2c1` [Compound 22d, 2-(5-Bromo-1H-indol-2-yl)benzo[d]thiazole]: the melting point was in the range of 208 to 210 °C. Further, the IC50 in data set [7] (setting [8]) stood at 358 nM. In addition, in data set [6] (setting [9]), the MIC is > 64 µg/mL.

The molecule `Cn1c(-c2cc3cc(Br)ccc3[nH]2)cc2ccc(Br)cc21` [Compound 12b, 5′,6-Dibromo-1-methyl-1H,2′H-2,2′-biindole] had a melting point of 192 to 194 °C. Moreover, the inhibition at 10 µM in data set [7] (setting [10]) stood at 25%.

Molecule `Brc1ccc2cc(-c3cc4cc(-c5ccccc5)ccc4[nH]3)[nH]c2c1` [Compound 10g, 6′-Bromo-5-phenyl-1H,1′H-2,2′-biindole] came in with a melting point of 237 to 239 °C. Further, the IC50 in data set [7] (setting [8]) came out at 2.2 nM. Besides, in data set [6] (setting [9]), the MIC was > 64 µg/mL.

In the case of `Brc1cc2cc(-c3cc4ccccc4[nH]3)[nH]c2cc1Br` [Compound 10j, 5,6-Dibromo-1H,1′H-2,2′-biindole], the melting point was 233 °C (dec.). Further, in data set [7] (setting [10]), the inhibition at 10 µM was 39%.
